From patent US7960588B2, “Benzyl cycloalkyl sphingosine 1-phosphate receptor modulators” (University of Virginia Patent Foundation, priority 2007, dated 2011) come the findings set out here.

The test system of this test is blood lymphocytes. Kind of test: Lymphopenia assay (circulating lymphocyte counts after oral gavage). It is filed as in vivo. To be noted: mice; for lymphopenia (circulating lymphocyte counts): single dose 10 mg/kg in 2% hydroxypropyl beta-cyclodextrin, blood drawn after 18 hours. The protocol:
The test compounds VPC122096 (benzylcyclopentyl), VPC122093 (benzylcyclohexyl) or VPC122097 (benzylcycloheptyl) compounds are dissolved in 2% hydroxypropyl beta-cyclodextrin and administered to mice by oral gavage at doses from 0.01 to 10 mg/kg body weight. After 24 hours (or other specified times), the mice are lightly anesthetized and ca. 0.1 ml of blood is drawn from the orbital sinus. The number of lymphocytes (in thousands per microliter of blood; normal is 4-11) is determined using a Hemavet blood analyzer. There were three mice per group, male, 10-11 weeks old, and the strain was mixed sv129×C57BL/6.
The test compounds VPC122096, VPC122097, or VPC122093 were dissolved in 2% aqueous hydroxypropyl beta-cyclodextrin and introduced into mice by oral gavage at 10 mg/kg (Three mice per group). Blood was drawn after 18 hours and examined. […] The results are illustrated in FIG. 3.
The test compound VPC122096, was dissolved in 2% aqueous hydroxypropyl beta-cyclodextrin (vehicle) and administered to mice orally (gavage) at doses of 0.01 mg/kg, 0.03 mg/kg, 0.1 mg/kg, 0.3 mg/kg, 1 mg/kg, and 3 mg/kg to provide a dose response curve (three-four mice per group, adult, C57Bl/6 strain). The blood samples were taken at 18 hours and 42 hours. Three mice per group, male, 10-11 week old sv129/C57Bl6 strain. The results are illustrated in FIG. 4. The ordinate represents lymphocytes in K/μl. The abscissa represents time in days after administration of a single dose. The ordinate represents lymphocytes in K/μl. The abscissa represents dose in milligram compound per kilogram body weight (mpk).
The duration of the effect of the test compounds was evaluated after administration of test compound VPC122096, dissolved in 2% aqueous hydroxypropyl beta-cyclodextrin (vehicle) and administered to mice orally (gavage). […] The blood samples were taken at 16 hours, 4 days, 12 days, and 19 days. FIG. 5 illustrates total blood lymphocyte count following the single dose of VPC122096 or vehicle.

As to `CCCCCCCCc1ccc(CC2CCCCCC2(N)CO)cc1` (centres unmarked) [VPC122097], where the note is “oral gavage”, the “lymphopenia (circulating lymphocyte counts)” value is listed as “evoked lymphopenia”. With `CCCCCCCCc1ccc(CC2CCCC(CO)C2N)cc1` (centres unmarked) [VPC122093], the “lymphopenia (circulating lymphocyte counts)” value (oral gavage) was “evoked lymphopenia”.

As to `CCCCCCCCc1ccc(CC2CCCC2(N)CO)cc1` (centres unmarked) [VPC122096, (1-amino-2-(4′-octylbenzyl)cyclopentyl)methanol], the “lymphopenia (circulating lymphocyte counts)” value (oral gavage) was “evoked lymphopenia”. Also, under “oral gavage, single dose (1.0 mg/kg per FIG. 5), blood samples at 16 hours, 4 days, 12 days, 19 days”, the “lymphopenia, duration of the effect (total blood lymphocyte count)” value is reported as “evoked a long lasting lymphopenia”. Also, the duration of lymphopenia result (single ED95 dose, oral) is on record as “a week or more”.
